Test results as given in patent US20260256792A1, “TREATMENT OF CHRONIC SPONTANEOUS URTICARIA BY ADMINISTERING (R)-2-[3-[4-AMINO-3-(2-FLUORO-4-PHENOXY-PHENYL)PYRAZOLO[3,4-D]PYRIMIDIN-1-YL]PIPERIDINE-1-CARBONYL]-4-METHYL-4-[4-(OXETAN-3-YL)PIPERAZIN-1-YL]PENT-2-ENENITRILE” (priority 2023, published 2026).

Tested on: moderate-to-severe chronic spontaneous urticaria (CSU)
Test: Phase 2 CSU study: urticaria activity score over 7 days (UAS7)
Type: in vivo, human
Parameters: key to UAS7 Median / UAS7 Change from baseline Median / UAS7 change from baseline, Q1 / UAS7 change from baseline, Q3 / UAS7 change from baseline, Max / UAS7 Change from baseline LS Mean (SE): UAS7 points; daily UAS score ranges 0–6 points/day, over 7 days
From the text: The study comprises a 12 week, randomized, double-blind, placebo-controlled, multi-center, dose-ranging efficacy and safety phase, followed by a 40 week open label extension (OLE) phase (see FIG. 1). The study consists of three phases and an optional OLE phase. […] Clinically, CSU is characterized by the spontaneous and recurrent appearance of pruritic hives. The proposed primary endpoints were the UAS7 at Week 12 in EU and EU reference countries and the ISS7 in the US. Regardless of where a participant was from, all assessments were the same. The UAS7 score is a composite score containing both the HSS7 and the ISS7. This allowed a global assessment of the two key components of urticaria: hives and itch. […] The UAS is a validated PRO measure. […] The daily UAS scores range from 0 to 6 point/day. […] Patients were to complete the UAS using the e-diary. […] The following secondary endpoints were to be analyzed using the same approach as for the primary endpoint: • Change from baseline in UAS7 at Week 4 • Change from baseline in UAS7 at Week 12 (for US and US reference countries) • Change from baseline in ISS7 at Week 12 (except US and US reference countries) • Change from baseline in HSS7 at Week 12 The following responder secondary endpoints were to be analyzed using the Cochran-Mantel-Haenszel test adjusted by region: • Proportion of participants with UAS7<6 at Week 12 • Proportion of participants with UAS7=0 at Week 12 Participants who received selected prohibited medications and/or rescue medications were to be considered as non-responders for time points after the medication usage. For other participants, all available data including those collected during the off-treatment period were to be used to determine the responder/non-responder status. Missing data were to be considered as non-responders.

[1] = Week 2, 400 mg TID, ITT population
[2] = Week 2, 400 mg TID, Omalizumab-Naïve
[3] = Week 2, 400 mg TID, Prior Omalizumab Use
[4] = Week 2, 400 mg TID, omalizumab-naive participants
[5] = Week 3, 400 mg BID, ITT population
[6] = Week 3, 400 mg BID, Omalizumab-Naïve
[7] = Week 3, 400 mg BID, Prior Omalizumab Use
[8] = Week 3, 400 mg BID, omalizumab-naive participants
[9] = Week 3, 400 mg QPM, ITT population
[10] = Week 3, 400 mg QPM, Omalizumab-Naïve
[11] = Week 3, 400 mg QPM, Prior Omalizumab Use
[12] = Week 3, 400 mg QPM, omalizumab-naive participants
[13] = Week 3, 400 mg TID, ITT population
[14] = Week 3, 400 mg TID, Omalizumab-Naïve

CC(C)(C=C(C#N)C(=O)N1CCC[C@@H](n2nc(-c3ccc(Oc4ccccc4)cc3F)c3c(N)ncnc32)C1)N1CCN(C2COC2)CC1 [rilzabrutinib, (R)-2-[3-[4-amino-3-(2-fluoro-4-phenoxy-phenyl)pyrazolo[3,4-d]pyrimidin-1-yl]piperidine-1-carbonyl]-4-methyl-4-[4-(oxetan-3-yl)piperazin-1-yl]pent-2-enenitrile]
OR for rilzabrutinib vs. placebo, UAS7 reduction of 10 points or more [1]: 5.982 | RRD (%) for rilzabrutinib vs. placebo, UAS7 reduction of 10 points or more [1]: 40.6 % | Responder, UAS7 reduction from baseline of 10 points or more [1]: 28 (68.3) n (%) | UAS7 Change from baseline Mean (SD) [2]: −13.69 (11.66) | UAS7 Change from baseline Median [2]: −11.00 | UAS7 Mean (SD) [2]: 15.65 (10.66) | UAS7 Median [2]: 14.00 | UAS7 Percent change from baseline Mean (SD) [2]: −45.70 (36.18) % | UAS7 Percent change from baseline Median [2]: −46.67% | UAS7 Change from baseline Mean (SD) [3]: −24.69 (11.86) | UAS7 Change from baseline Median [3]: −22.50 | UAS7 Mean (SD) [3]: 8.33 (9.77) | UAS7 Median [3]: 5.50 | UAS7 Percent change from baseline Mean (SD) [3]: −75.38 (23.12) % | UAS7 Percent change from baseline Median [3]: −73.96% | Non-responder, UAS7 reduction from baseline of 10 points or more [4]: 13 (37.1) n (%) | OR for rilzabrutinib vs. placebo, UAS7 reduction of 10 points or more [4]: 5.505 | RRD (%) for rilzabrutinib vs. placebo, UAS7 reduction of 10 points or more [4]: 39.0 % | Responder, UAS7 reduction from baseline of 10 points or more [4]: 22 (62.9) n (%) | Non-responder, UAS7 reduction from baseline of 10 points or more [5]: 20 (48.8) n (%) | OR for rilzabrutinib vs. placebo, UAS7 reduction of 10 points or more [5]: 2.109 | RRD (%) for rilzabrutinib vs. placebo, UAS7 reduction of 10 points or more [5]: 18.0 % | Responder, UAS7 reduction from baseline of 10 points or more [5]: 21 (51.2) n (%) | UAS7 Change from baseline Mean (SD) [6]: −12.02 (10.63) | UAS7 Change from baseline Median [6]: −9.00 | UAS7 Mean (SD) [6]: 17.71 (11.91) | UAS7 Median [6]: 16.80 | UAS7 Percent change from baseline Mean (SD) [6]: −41.11 (35.05) % | UAS7 Percent change from baseline Median [6]: −32.14% | UAS7 Change from baseline Mean (SD) [7]: −15.81 (16.39) | UAS7 Change from baseline Median [7]: −15.00 | UAS7 Mean (SD) [7]: 17.19 (13.86) | UAS7 Median [7]: 18.58 | UAS7 Percent change from baseline Mean (SD) [7]: −44.47 (44.78) % | UAS7 Percent change from baseline Median [7]: −41.73% | Non-responder, UAS7 reduction from baseline of 10 points or more [8]: 18 (51.4) n (%) | OR for rilzabrutinib vs. placebo, UAS7 reduction of 10 points or more [8]: 2.057 | RRD (%) for rilzabrutinib vs. placebo, UAS7 reduction of 10 points or more [8]: 17.2 % | Responder, UAS7 reduction from baseline of 10 points or more [8]: 17 (48.6) n (%) | Non-responder, UAS7 reduction from baseline of 10 points or more [9]: 22 (57.9) n (%) | OR for rilzabrutinib vs. placebo, UAS7 reduction of 10 points or more [9]: 1.663 | RRD (%) for rilzabrutinib vs. placebo, UAS7 reduction of 10 points or more [9]: 11.7 % | Responder, UAS7 reduction from baseline of 10 points or more [9]: 16 (42.1) n (%) | UAS7 Change from baseline Mean (SD) [10]: −9.10 (8.78) | UAS7 Change from baseline Median [10]: −7.00 | UAS7 Mean (SD) [10]: 22.01 (9.00) | UAS7 Median [10]: 22.00 | UAS7 Percent change from baseline Mean (SD) [10]: −28.09 (25.63) % | UAS7 Percent change from baseline Median [10]: −26.67% | UAS7 Change from baseline Mean (SD) [11]: −22.00 (NC) | UAS7 Change from baseline Median [11]: −22.00 | UAS7 Mean (SD) [11]: 19.00 (NC) | UAS7 Median [11]: 19.00 | UAS7 Percent change from baseline Mean (SD) [11]: −53.66 (NC) % | UAS7 Percent change from baseline Median [11]: −53.66% | Non-responder, UAS7 reduction from baseline of 10 points or more [12]: 22 (59.5) n (%) | OR for rilzabrutinib vs. placebo, UAS7 reduction of 10 points or more [12]: 1.665 | RRD (%) for rilzabrutinib vs. placebo, UAS7 reduction of 10 points or more [12]: 11.4 % | Responder, UAS7 reduction from baseline of 10 points or more [12]: 15 (40.5) n (%) | Non-responder, UAS7 reduction from baseline of 10 points or more [13]: 14 (34.1) n (%) | OR for rilzabrutinib vs. placebo, UAS7 reduction of 10 points or more [13]: 3.444 | RRD (%) for rilzabrutinib vs. placebo, UAS7 reduction of 10 points or more [13]: 31.4 % | Responder, UAS7 reduction from baseline of 10 points or more [13]: 27 (65.9) n (%) | UAS7 Change from baseline Mean (SD) [14]: −13.97 (12.14) | UAS7 Change from baseline Median [14]: −14.00 | UAS7 Mean (SD) [14]: 15.37 (9.87) | UAS7 Median [14]: 14.00
